The record followed here is ChEMBL document CHEMBL1201862, “PubChem BioAssay data set” (2004).

Test systems include A549; COLO 205; EKVX; HCT-116; MDA-MB-231; MDA-N; MOLT-4; Malme-3M; NCI-H522; OVCAR-4; OVCAR-8; PC-3; SF-295; SK-OV-3; SN12C; SNB-75; SR; T47D; UACC-257.
Common to all, as to assay: inhibition of tumour cell growth, NCI panel, 48 h

The structures appear in SMILES notation.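 Compound exposure: 48 hours, 5 concentrations, 96-well plates. GI50 is the concentration that inhibits growth by half.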 Active and inactive are the calls of the source. Cut-off read from the data, not from the text of the source: active = GI50 up to about 1.1 µM and inactive = higher. A value given as a limit tells only on which side of the number the result lay.

As for `CCCOC(=O)c1cc(O)c(O)c(O)c1` [PROPYL GALLATE], the GI50 in the assay on A549 was 27.2 µM (inactive); in the assay with COLO 205, > 100 µM (inactive); in the assay on EKVX it was 27.7 µM (inactive); in the assay with HCT-116, 20.8 µM (inactive); in the assay on MDA-MB-231, 58.1 µM (inactive); with MDA-N it was 14.7 µM (inactive). Also, the GI50 in the assay on MOLT-4 was 5.83 µM (inactive); with Malme-3M, 74.6 µM (inactive); with NCI-H522, 8.2 µM (inactive); with OVCAR-4, > 100 µM (inactive); in the assay with OVCAR-8, 27.9 µM (inactive); in the assay with PC-3, 18.7 µM (inactive). Besides, the GI50 was 47.5 µM (inactive) in the assay on SF-295; > 100 µM (inactive) in the assay on SK-OV-3; 22.4 µM (inactive) in the assay on SN12C; 40.3 µM (inactive) in the assay with SNB-75; > 100 µM (inactive) in the assay on SR; 62.1 µM (inactive) in the assay on T47D. In addition, the GI50 with UACC-257 was > 100 µM (inactive).
Consider `CN(CCC(=O)O)C1=Nc2ccc(Cl)cc2C(c2ccccc2)=[N+]([O-])C1`, for which the GI50 in the assay on A549, in the assay with COLO 205, in the assay with EKVX, in the assay with HCT-116, with MDA-MB-231 and in the assay on MDA-N was > 100 µM (inactive) in each case. Also, the GI50 in the assay on MOLT-4 was > 100 µM (inactive); in the assay with Malme-3M, > 100 µM (inactive); in the assay on NCI-H522, > 100 µM (inactive); in the assay with OVCAR-4 it was 72.1 µM (inactive); in the assay on OVCAR-8, > 100 µM (inactive); in the assay with PC-3 it was > 100 µM (inactive). In addition, the GI50 in the assay with SF-295, with SK-OV-3, with SN12C, in the assay with SNB-75, in the assay on SR and with T47D was > 100 µM (inactive) each time. Also, the GI50 in the assay on UACC-257 was > 100 µM (inactive).
As to `CCC1(O)C(=O)OCc2c1cc1n(c2=O)Cc2cc3ccccc3nc2-1` (stereo not given), the GI50 in the assay with A549 is 0.0221 µM (active); in the assay with COLO 205, 0.101 µM (active); in the assay on EKVX it was 0.0869 µM (active); with HCT-116, 0.048 µM (active); in the assay with MDA-MB-231, 0.857 µM (active); in the assay with MDA-N, 0.0817 µM (active). Further, the GI50 in the assay on MOLT-4 was < 0.01 µM (active); in the assay on Malme-3M it was 0.431 µM (active); in the assay with NCI-H522, 0.0471 µM (active); in the assay on OVCAR-4, 0.504 µM (active); in the assay on OVCAR-8, 0.0653 µM (active); with PC-3, 2.03 µM (inactive). Besides, the GI50 in the assay on SF-295 was < 0.01 µM (active); in the assay with SK-OV-3, 0.0312 µM (active); with SN12C, 0.0703 µM (active); in the assay on SNB-75 it was < 0.0215 µM (active); with SR, < 0.01 µM (active); in the assay on T47D, 0.0237 µM (active). For the same compound, the GI50 with UACC-257 is 0.417 µM (active).
As for `O=C(O)c1c(-c2nccc3ccccc23)[nH]c(-c2ccccc2)c1S(=O)(=O)O`, the GI50 in the assay with A549 was > 100 µM (inactive); with COLO 205, > 100 µM (inactive); in the assay with EKVX it was 21.8 µM (inactive); in the assay with HCT-116, > 100 µM (inactive); with MDA-MB-231, > 100 µM (inactive); in the assay on MDA-N, > 100 µM (inactive). Further, the GI50 in the assay with MOLT-4 is 47.6 µM (inactive); with Malme-3M, > 100 µM (inactive); in the assay with NCI-H522, > 100 µM (inactive); in the assay with OVCAR-4 it was > 100 µM (inactive); with OVCAR-8, > 100 µM (inactive); in the assay with PC-3 it was > 100 µM (inactive). In addition, the GI50 in the assay with SF-295, with SK-OV-3, in the assay with SN12C, in the assay with SNB-75, with SR and in the assay on T47D was > 100 µM (inactive) throughout. Also, the GI50 in the assay with UACC-257 was > 100 µM (inactive).
For `O=C1c2ccccc2-[n+]2ccc3c([nH]c4ccccc43)c21` [FASCAPLYSIN CHLORIDE], the GI50 with A549 was 0.565 µM (active); with COLO 205 it was 0.21 µM (active); in the assay on EKVX, 0.274 µM (active); with HCT-116, 0.195 µM (active); in the assay with MDA-MB-231, 0.22 µM (active); in the assay with MDA-N, 0.191 µM (active). Moreover, the GI50 in the assay with MOLT-4 is 0.285 µM (active); in the assay with Malme-3M, 0.0586 µM (active); in the assay on NCI-H522, 0.49 µM (active); in the assay with OVCAR-4, 0.628 µM (active); with OVCAR-8, 0.439 µM (active); with PC-3, 0.269 µM (active). Besides, the GI50 was 0.232 µM (active) in the assay on SF-295; 1.56 µM (inactive) in the assay on SK-OV-3; 0.231 µM (active) in the assay on SN12C; 0.452 µM (active) with SNB-75; 0.132 µM (active) in the assay with SR; 0.755 µM (active) in the assay on T47D. Further, the GI50 in the assay on UACC-257 is 0.327 µM (active).
On to `O=[N+]([O-])c1cc(Cl)cc2c1nc(NCCO)c1ccccc12`, for which the GI50 in the assay on A549 was 2.95 µM (inactive); in the assay with COLO 205, 0.0435 µM (active); in the assay on EKVX, 6.21 µM (inactive); in the assay on HCT-116, 4.78 µM (inactive); in the assay on MDA-MB-231, 21.1 µM (inactive); with MDA-N, 4.62 µM (inactive). Besides, the GI50 is 3.78 µM (inactive) in the assay with MOLT-4; 12.3 µM (inactive) in the assay on Malme-3M; 13.6 µM (inactive) in the assay with NCI-H522; 13.5 µM (inactive) in the assay on OVCAR-4; 16.3 µM (inactive) in the assay with OVCAR-8; 4.97 µM (inactive) in the assay on PC-3. The GI50 was 13.1 µM (inactive) with SF-295; 29.1 µM (inactive) in the assay on SK-OV-3; 6.17 µM (inactive) with SN12C; 20.4 µM (inactive) with SNB-75; 0.653 µM (active) with SR; 20.3 µM (inactive) with T47D. For the same compound, the GI50 with UACC-257 is 13.8 µM (inactive).
In the case of `Cc1ccc([S+]([O-])/C=C(\NC(=O)OCc2ccccc2)C(F)(F)F)cc1` (stereo not given), the GI50 with A549 was 41 µM (inactive); with COLO 205, 58.6 µM (inactive); in the assay with EKVX, 46.6 µM (inactive); in the assay on HCT-116, 45.7 µM (inactive); with MDA-MB-231, 55.2 µM (inactive); in the assay on MDA-N, 38.6 µM (inactive). Besides, the GI50 is 25.2 µM (inactive) with MOLT-4; 35.2 µM (inactive) with Malme-3M; 29.8 µM (inactive) in the assay with NCI-H522; 67.5 µM (inactive) in the assay with OVCAR-4; 36.9 µM (inactive) with OVCAR-8; 50.4 µM (inactive) in the assay on PC-3. Moreover, the GI50 was 39.8 µM (inactive) with SF-295; > 100 µM (inactive) in the assay with SK-OV-3; 45.4 µM (inactive) with SN12C; 18.8 µM (inactive) in the assay with SNB-75; 30.4 µM (inactive) in the assay with SR; 39.7 µM (inactive) in the assay with T47D. Besides, the GI50 in the assay on UACC-257 is 78 µM (inactive).
Turning to `COC(=O)C(Cc1c[nH]c2ccccc12)NC(=O)c1ccc(-c2ccc(Cl)cc2Cl)o1` (stereo not given), the GI50 in the assay with A549 was 34.9 µM (inactive); with COLO 205, 43.9 µM (inactive); in the assay on EKVX, 27.4 µM (inactive); in the assay on HCT-116 it was 22.3 µM (inactive); in the assay on MDA-MB-231, 15.5 µM (inactive); in the assay with MDA-N, 48.2 µM (inactive). Moreover, the GI50 in the assay with MOLT-4 was 17.6 µM (inactive); in the assay on Malme-3M it was > 100 µM (inactive); with NCI-H522 it was 64.3 µM (inactive); in the assay on OVCAR-4, 38.3 µM (inactive); with OVCAR-8 it was 54.1 µM (inactive); in the assay with PC-3, 7.96 µM (inactive). For the same compound, the GI50 is 40.5 µM (inactive) in the assay on SF-295; > 100 µM (inactive) with SK-OV-3; 26.4 µM (inactive) in the assay with SN12C; 35.5 µM (inactive) in the assay on SNB-75; 26.1 µM (inactive) with SR; 27.5 µM (inactive) in the assay with T47D. Also, the GI50 with UACC-257 was 16.9 µM (inactive).
Regarding `CC(C)C[C@H](NC(=O)[C@H](Cc1cccc2ccccc12)NC(=O)N1CCOCC1)B(O)O`, the GI50 is < 0.0107 µM (active) in the assay on A549; 0.0122 µM (active) with COLO 205; 0.0334 µM (active) in the assay with EKVX; < 0.01 µM (active) with HCT-116; < 0.01 µM (active) in the assay on MDA-MB-231; < 0.01 µM (active) with MDA-N. The GI50 in the assay on MOLT-4 was < 0.01 µM (active); in the assay on Malme-3M, < 0.01 µM (active); in the assay on NCI-H522 it was < 0.01 µM (active); with OVCAR-4 it was < 0.01 µM (active); in the assay with OVCAR-8 it was < 0.0128 µM (active); in the assay on PC-3, < 0.0108 µM (active). For the same compound, the GI50 is 0.00348 µM (active) in the assay on SF-295; 0.008 µM (active) in the assay on SK-OV-3; < 0.01 µM (active) in the assay on SN12C; < 0.01 µM (active) in the assay with SNB-75; < 0.0126 µM (active) in the assay on SR; < 0.01 µM (active) in the assay with T47D. The GI50 in the assay with UACC-257 was < 0.01 µM (active).
As for `O=C1Nc2nccnc2C(=O)N2CCC[C@@H]12`, the GI50 with A549, with COLO 205, in the assay with EKVX, in the assay on HCT-116, in the assay on MDA-MB-231 and with MDA-N was > 100 µM (inactive) each time. The GI50 in the assay with MOLT-4, in the assay on Malme-3M, in the assay with NCI-H522, in the assay on OVCAR-4, with OVCAR-8 and in the assay with PC-3 was > 100 µM (inactive) each time. The GI50 with SF-295, in the assay on SK-OV-3, in the assay with SN12C, in the assay with SNB-75, in the assay on SR and in the assay with T47D was > 100 µM (inactive) in each case. Besides, in the assay on UACC-257, the GI50 is > 100 µM (inactive).
